The subject of series [1] is E. coli DH10B cells. Nature of the series: growth of cells in the presence of the unnatural amino acid during Z domain expression. The conditions noted are these: 1 mM; cells transformed with mutRNA^TyrCUA, LW1RS and Z domain gene (Lys7TAG).
Method: E. coli DH10B cells cotransformed with pLEIZ and pBK-LW1RS were grown in minimal media containing 1% glycerol and 0.3 mM leucine (GMML media) with 25 μg/mL kanamycin, 34 μg/mL of chloramphenicol, and 1.0 mM p-acetyl-(±)-phenylalanine. When cells reach an OD600 of 0.5, isopropyl-β-D-thiogalactopyranoside (IPTG) (1 mM) was added to induce protein expression.
Cells transformed with the mutRNA^TyrCUA, LW1RS and Z domain gene (Lys7TAG) were grown in the presence of 1 mM p-acetyl-(±)-phenylalanine.
Series [2] has as its system E. coli cells expressing mutant TyrRS and mutRNA^TyrCUA. The experiment in a line: in vivo assay based on suppression of the Asp112TAG codon in the CAT gene (chloramphenicol resistance), p-acetyl-L-phenylalanine synthetases. It counts as cell-based. The settings on record: Escherichia coli, read-out: IC50 value chloramphenicol, eleven mutant TyrRS.
Series [3] deals with cells harboring the one of the three mutant TyrRS plasmids. The experiment in a line: chloramphenicol resistance of cells harboring mutant TyrRS plasmids selected for m-acetyl phenylalanine. It counts as cell-based. The source says:
Preparation of mutant TyrRS library plasmids: A library of plasmids encoding mutant M. jannaschii TryRSs directed at meta-substituted tyrosine derivatives was constructed, generally following the methods described in Example 1 of WO 2002/085923. Briefly, six residues (Tyr^32, Ala^67, His^70, Gln^155, Asp^158, Ala^167) in the active site of M. jannaschii TyrRS that are within 6.9 Å of the meta-position of the aryl ring of bound tyrosine in the crystal structure of Bacillus stearothermophilus TyrRS were mutated to all 20 amino acids at DNA level using the NNK codon scheme as described in Example 1 above. The constructed plasmid library pBK-lib contained around 1×10^9 independent clones.
Evolution of orthogonal tRNA-synthetase pairs for incorporation of m-acetyl phenylalanine: After 3 rounds of positive selection and 2 rounds of negative selection, five candidate clones (SEQ ID NO: 17-21 of WO 2002/085923 and SEQ ID NO: 49-53 of WO 2002/085923) emerged whose survival in chloramphenicol was dependent on the addition of the unnatural amino acid. In the absence of m-acetyl phenylalanine, the IC50 of chloramphenicol resistance for cells harboring the one of the three mutant TyrRS plasmids is 20 μg/ml. In the presence of m-acetyl phenylalanine, the IC50 of resistance to chloramphenicol for the same cells is 100 μg/ml. […]

Series [4] deals with T1, mutRNA^TyrCUA/LW1RS (Methanocaldococcus jannaschii, UniProt Q57834, D158G/I159C/L162R/Y32L).
T1 construct: The mutant synthetase gene isolated from clone LW1 (LW1RS) was encoded in plasmid pBKLW1RS; expressed in transfected cells; host or cells: E. coli DH10B cotransformed with pLEIZ and pBK-LW1RS
It counts as cell-based, Methanococcus jannaschii. The conditions noted are these: mutant Z domain (Lys7TAG); from signal-to-noise ratio of more than 1500 in the intact protein mass spectrum.
From the text: Protein expression and purification: Plasmid pLEIZ was used to express the Z-domain gene with an amber codon at the 7th position and a COOH-terminal His6 tag under the control of a bacteriophage T5 promoter and t0 terminator, and the mutRNA^TyrCUA gene under the control of the lpp promoter and rrnC terminator. The mutant synthetase gene isolated from clone LW1 (LW1RS) was encoded in plasmid pBKLW1RS under the control of the constitutive E. coli GlnRS promoter and terminator. E. coli DH10B cells cotransformed with pLEIZ and pBK-LW1RS were grown in minimal media containing 1% glycerol and 0.3 mM leucine (GMML media) with 25 μg/mL kanamycin, 34 μg/mL of chloramphenicol, and 1.0 mM p-acetyl-(±)-phenylalanine. When cells reach an OD600 of 0.5, isopropyl-β-D-thiogalactopyranoside (IPTG) (1 mM) was added to induce protein expression. After 5 hours, cells were pelleted and the protein was purified by Ni^2+ affinity chromatography under denaturing conditions according to the manufacturer's protocol (Qiagen, Valencia, Calif.). […] The yield of protein was measured by Bradford assay (BCA kit, Biorad, Hercules, Calif.). […]
Both the wt Z domain protein expressed by mutRNA^TyrCUA/wt TyrRS and the mutant Z domain protein expressed by the mutRNA^TyrCUA/LW1RS were analyzed by electrospray ionization Fourier transform ion cyclotron resonance mass spectrometry (FT-ICR MS). […]

As usually defined, the IC50 is the concentration that inhibits the measured activity by half.

Values after ≈ are worked out from the molar mass of the structure shown. Like-named read-outs stand apart in the source and are kept apart here.

T1 sequence (Q57834 whole entry Y32L/D158G/I159C/L162R): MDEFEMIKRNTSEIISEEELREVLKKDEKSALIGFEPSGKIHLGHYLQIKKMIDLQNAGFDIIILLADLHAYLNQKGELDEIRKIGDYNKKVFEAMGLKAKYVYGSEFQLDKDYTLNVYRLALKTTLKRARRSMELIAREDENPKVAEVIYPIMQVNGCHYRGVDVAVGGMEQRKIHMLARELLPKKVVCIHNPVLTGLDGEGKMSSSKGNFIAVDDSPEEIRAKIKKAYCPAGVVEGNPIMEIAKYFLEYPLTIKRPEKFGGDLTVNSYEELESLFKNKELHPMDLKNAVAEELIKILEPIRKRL

For `CC(=O)c1ccc(CC(N)C(=O)O)cc1` (racemic) [p-acetyl-(±)-phenylalanine], in series [1], the “effect on growth rate of cells” value is “did not affect the growth rate of cells”.

`O=C(N[C@H](CO)[C@H](O)c1ccc([N+](=O)[O-])cc1)C(Cl)Cl` [chloramphenicol]: the IC50 in series [2] (in the absence of p-acetyl-L-phenylalanine) was 9 µg/mL (≈ 27.9 µM); in series [2] (in the presence of p-acetyl-L-phenylalanine), 120 µg/mL; in series [3] (in the presence of m-acetyl phenylalanine, read-out: IC50 of resistance to chloramphenicol), 100 µg/mL; in series [3] (read-out: IC50 of chloramphenicol resistance), 20 µg/mL (≈ 61.9 µM).

With `CC(=O)c1ccc(C[C@H](N)C(=O)O)cc1` [p-acetyl-L-phenylalanine], the “fidelity for the incorporation” value in series [4] was more than 99.8%.

The values above are taken from patent US8114629B2, “Site specific incorporation of keto amino acids into proteins” (The Scripps Research Institute, priority 2002, dated 2012).
